{
  "source": "patent US20180200257A1",
  "about": "“METHODS FOR THE TREATMENT OF INFLAMMATORY DISORDERS” (Galapagos NV, priority 2015, published 2018)",
  "system": "Subjects With Active Crohn's Disease With Evidence of Mucosal Ulceration",
  "assay": "Study 3 - Fecal calprotectin levels",
  "format": "in vivo, human",
  "settings": "200 mg; week 10; LOCF",
  "from_the_text": "Double-Blind, Randomized, Placebo-Controlled, Multi-Centre Study to Investigate the Efficacy and Safety of Compound 1 in Subjects With Active Crohn's Disease With Evidence of Mucosal Ulceration.\nThis is a double-blind, randomized, placebo-controlled, multi-centre Phase 2 study to investigate the efficacy and safety of Compound 1 administered once daily for the treatment of active CD with evidence of mucosal ulceration. The pharmacokinetics (including a PK substudy) and pharmacodynamics of Compound 1 and metabolite in CD will also be characterised.\nA total of 180 eligible subjects will be randomized to receive Compound 1 or placebo in addition to their stable background treatment (eg, corticosteroids, aminosalicylates, or CD-related antibiotics). The study will consist of 2 parts, with total treatment duration of 20 weeks. Randomization in Part 1 will be stratified according the subject's previous anti-TNF exposure/response, CRP level at Screening, and oral corticosteroid use at visit Day −1.\nAfter the first 10 weeks of treatment in Part 1, patients will be re-randomized for Part 2 as shown in the diagram below and will be stratified according to the subject's clinical response, previous anti-TNF exposure/response, and oral corticosteroid use at visit Day -1.\nFecal calprotectin is a protein belonging to the S100 family and occurring in large amounts in neutrophil granulocytes, where it accounts for 5% of total proteins and 60% of cytoplasm proteins. When inflammatory processes occur, calprotectin is released due to the degranulation of neutrophil granulocytes.\nIn bowel inflammation, calprotectin may be detected in the stool. The fecal levels provide direct information about the inflammation and is determined using a Calprest® enzyme immunoassay diagnostic kit (Eurospital Spa—Via Flavia 122-34147 Trieste—Italy; ref 9031).",
  "data": [
    {"compound": "O=C(Nc1nc2cccc(-c3ccc(CN4CCS(=O)(=O)CC4)cc3)n2n1)C1CC1", "note": "[Compound 1, cyclopropanecarboxylic acid {5-[4-(1,1-dioxo-thiomorpholin-4-ylmethyl)-phenyl]-[1,2,4]triazolo[1,5-a]pyridin-2-yl}-amide]", "values": [
      {"measurement": "Fecal calprotectectin normalizing high to normal (<50 mg/kg), % subjects normalizing", "result": 12, "unit": "%"},
      {"measurement": "Fecal calprotectectin normalizing high to normal (>250 mg/kg to ≤250 mg/kg), % subjects normalizing", "result": 44, "unit": "%"},
      {"measurement": "Fecal calprotectin mean, % CFB", "result": 73, "unit": "%"},
      {"measurement": "Fecal calprotectin mean, CFB", "result": -86.7, "unit": "mg/kg"},
      {"measurement": "Fecal calprotectin median, % CFB", "result": "−29", "unit": "%"},
      {"measurement": "Fecal calprotectin median, CFB", "result": -75.5, "unit": "mg/kg"}
    ]}
  ]
}
